Results reported in article PMC5057115, “Cathelicidins in the Tasmanian devil (Sarcophilus harrisii)” (Scientific Reports, 2016).
Where no end group is shown, it is not given here.

Experiments:
E. coli ATCC 25922 = assay: microbe, parasite or virus in culture; format: cell-based, Escherichia coli; conditions: ATCC 25922, 24 h
Procedure: (§1) Tissue expression of devil cathelicidin prepropeptides was determined by real-time PCR on a range of secretory, immune, reproductive, gastrointestinal and respiratory tissues, as well as BLAST searches of the milk transcriptome. Opportunistic tissue samples for real-time PCR were collected from Taronga Zoo (Sydney) from devils which were subject to euthanasia due to old age and advanced disease. The mature peptides of all six devil cathelicidins were synthesised by ChinaPeptides Co. Ltd. and their antimicrobial activity against bacterial and fungal pathogens determined by broth microdilution susceptibility assay according to clinical laboratory standards institute guidelines. Antimicrobial activity was expressed as minimum inhibitory concentration (MIC). Cytotoxicity was assessed in the human cell line A549 and haemolytic activity determined against human blood. Statistical significance of peptide effect on cell survival in comparison to the untreated control was calculated using a one sample t-test. Pouch microbiome analysis was performed on swabs from the pouch of lactating and non-lactating devils to detect changes in microbe populations. Pouch swab collection was carried out in accordance with the Save the Tasmanian Devil Program and was approved by the Animal Ethics Committee of the University of Sydney (permit number 681). […]
(§2) base (YNB) for fungi, from a concentration of 64μg/mL to 0.125μg/mL in a final volume of 100 μL .
(§3) Two antibiotics, ampicillin and tetracycline, were included as a positive control for bacteria, and the antifungal drug fluconazole for fungi. A well containing cells and media only was used as a “no drug” control to ensure that cultures grew normally. Bacteria were subcultured on Mueller Hinton agar (MHA) or Sheep blood agar (BA) for 24 hours at 35 °C for Staphylococcus spp., Pseudomonas spp., Enterococcus spp. and E.coli, with 5% CO2 for Streptococcus spp., K.pneumoniae, P.multocida, L.monocytogenes and N.asteroides. Similarly, fungi were subcultured on Sabouraud agar (SAB) at 35 °C for 24 hours prior to the test. Colonies were resuspended in saline and the OD530 measured with a McFarland reader. If necessary the suspension was diluted to 0.45-0.55 McFarland units with saline. […] Assays Antimicrobial activity was expressed as minimum inhibitory concentration (MIC), which was defined as the lowest concentration of cathelicidin preventing visible growth, relative to the negative control. […]
(§4) 570nm and 620nm using the Victor 3 multilabel plate reader (PerkinElmer). […] To x i city of cathelicidins was calculated according to Invitrogen recommendations and expressed as percentage cell survival compared to the untreated growth control. […]
(§5) Haemolytic activity was assessed using 10mL of human blood collected into potassium -ED T A vacutainers (BD). […]

S. aureus ATCC 29213 = assay: microbe, parasite or virus in culture; format: cell-based, Staphylococcus aureus; conditions: ATCC 29213, 24 h
Procedure: as §1, §2, §3, §4, §5

S. aureus = format: cell-based, Staphylococcus aureus; conditions: broth microdilution (CLSI), 64 to 0.125 μg/mL, 24 h at 35 °C; human clinical isolate
Procedure: as §1, §2
Two antibiotics, ampicillin and tetracycline, were included as a positive control for bacteria, and the antifungal drug fluconazole for fungi. A well containing cells and media only was used as a “no drug” control to ensure that cultures grew normally. […] Colonies were resuspended in saline and the OD530 measured with a McFarland reader. […] Assays Antimicrobial activity was expressed as minimum inhibitory concentration (MIC), which was defined as the lowest concentration of cathelicidin preventing visible growth, relative to the negative control. […]
(§6) DMEM and positive control of dimethylsulfoxide (DMSO) (1%) were also included. Following incubation for a further 24 hours, cell viability was determined using alamar blue (Invitrogen) which was added to each well. The plates were incubated for 24 hours, then the absorption measured at 570nm and 620nm using the Victor 3 multilabel plate reader (PerkinElmer). […] To x i city of cathelicidins was calculated according to Invitrogen recommendations and expressed as percentage cell survival compared to the untreated growth control. […]
(§7) Haemolytic activity was assessed using 10mL of human blood collected into potassium -ED T A […]

E. faecalis = format: cell-based, Enterococcus faecalis; conditions: broth microdilution (CLSI), 64 to 0.125 μg/mL, 24 h at 35 °C; human clinical isolate
Procedure: as §1, §2
(§8) Two antibiotics, ampicillin and tetracycline, were included as a positive control for bacteria, and the antifungal drug fluconazole for fungi. A well containing cells and media only was used as a “no drug” control to ensure that cultures grew normally. Bacteria were subcultured on Mueller Hinton agar (MHA) or Sheep blood agar (BA) for 24 hours at 35 °C for Staphylococcus spp., Pseudomonas spp., Enterococcus spp. and E.coli, with 5% CO2 for Streptococcus spp., K.pneumoniae, P.multocida, L.monocytogenes and N.asteroides. Similarly, fungi were subcultured on Sabouraud agar (SAB) at 35 °C for 24 hours prior to the test. Colonies were resuspended in saline and the OD530 measured with a McFarland reader. If necessary the suspension was diluted to 0.45-0.55 McFarland units with saline. Following a 1:150 dilution for bacteria and twostep dilution for fungi (1:50, 1:20), 100 μL of microorganisms (1x106 – 5 x10^5 cells/mL) were pipetted into wells 2-12, the first well acting as a negative control. Colony counts were performed using a 1:1000 dilution for bacteria and 1:10 for fungi spread onto MHA/BA or SAB plates respectively. The 96 well microdilution and agar plates were incubated for 24 hours at 35 °C (Escherichia coli, Staphylococcus spp., Enterococcus spp. and Pseudomonas spp.), with 5% CO2 (Streptococcus spp. Pasteurella multocida, Klebsiella pneumoniae, Listeria monocytogenes a nd Nocardia asteroids) for bacteria, and 35 °C for 48 hours (Candida spp .) or 72 hours (Cryptococcus spp.) for fungi. Assays Antimicrobial activity was expressed as minimum inhibitory concentration (MIC), which was defined as the lowest concentration of cathelicidin preventing visible growth, relative to the negative control. […]
(§9) DMEM and positive control of dimethylsulfoxide (DMSO) (1%) were also included. Following incubation for a further 24 hours, cell viability was determined using alamar blue (Invitrogen) which was added to each well. The plates were incubated for 24 hours, then the absorption measured at 570nm and 620nm using the Victor 3 multilabel plate reader (PerkinElmer). The assay was performed on two separate occasions. To x i city of cathelicidins was calculated according to Invitrogen recommendations and expressed as percentage cell survival compared to the untreated growth control. A significant difference between cathelicidin treated and control cell survival was tested using a o ne sample t-test (p<0.05).
as §7
(§10) vacutainers (BD). […]

[1] = test system: Vancomycin resistant E. faecalis (VREF); format: cell-based, Enterococcus faecalis; conditions: broth microdilution (CLSI), 64 to 0.125 μg/mL, 24 h at 35 °C, human clinical isolate
Procedure: as §1, §2, §8, §9, §7, §10

[2] = test system: C. parapsilosis ATCC 22019; assay: microbe, parasite or virus in culture; format: cell-based; conditions: broth microdilution (CLSI), YNB, 64 to 0.125 μg/mL, 48 hours at 35 °C; ATCC strain
Procedure: as §1, §2, §8
(§11) DMEM and positive control of dimethylsulfoxide (DMSO) (1%) were also included. […]
(§12) 570nm and 620nm using the Victor 3 multilabel plate reader (PerkinElmer). The assay was performed on two separate occasions. To x i city of cathelicidins was calculated according to Invitrogen recommendations and expressed as percentage cell survival compared to the untreated growth control. A significant difference between cathelicidin treated and control cell survival was tested using a o ne sample t-test (p<0.05).
(§13) Haemolytic activity was assessed using 10mL of human blood collected into potassium -ED T A vacutainers (BD). The blood was washed three times with 30mL of calcium and magnesium -free Dulbecco’s phosphate buffered saline (DPBS) and cells were collected by centrifugation at 2000 x g […]
(§14) for 10 minutes. […]

S. pneumoniae ATCC 49619 = assay: microbe, parasite or virus in culture; format: cell-based; conditions: ATCC 49619, 24 h
Procedure: as §1, §2, §8, §11, §12, §13, §14

K. pneumoniae* = format: cell-based, Klebsiella pneumoniae; conditions: broth microdilution (CLSI), 64 to 0.125 μg/mL, 24 h at 35 °C with 5% CO2; animal isolate
Procedure: as §1, with “t-test.” for “t-test. Pouch microbiome analysis was performed on swabs from the pouch of lactating and non-lactating devils to detect changes in microbe populations. Pouch swab collection was carried out in accordance with the Save the Tasmanian Devil Program and was approved by the Animal Ethics Committee of the University of Sydney (permit number 681).”
(§15) Two antibiotics, ampicillin and tetracycline, were included as a positive control for bacteria, and the antifungal drug fluconazole for fungi. […] Colonies were resuspended in saline and the OD530 measured with a McFarland reader. […] Assays Antimicrobial activity was expressed as minimum inhibitory concentration (MIC), which was defined as the lowest concentration of cathelicidin preventing visible growth, relative to the negative control. […]
as §6, §7

C. krusei ATCC 6258 = format: cell-based, Candida krusei; conditions: broth microdilution (CLSI), YNB, 64 to 0.125 μg/mL, 48 hours at 35 °C; ATCC strain
Procedure: as §1, with “t-test.” for “t-test. Pouch microbiome analysis was performed on swabs from the pouch of lactating and non-lactating devils to detect changes in microbe populations. Pouch swab collection was carried out in accordance with the Save the Tasmanian Devil Program and was approved by the Animal Ethics Committee of the University of Sydney (permit number 681).”
as §15, §6, §7

C. neoformans = format: cell-based, Cryptococcus neoformans; conditions: broth microdilution (CLSI), YNB, 64 to 0.125 μg/mL, 72 hours at 35 °C; human clinical isolate
Procedure: as §1, with “t-test.” for “t-test. Pouch microbiome analysis was performed on swabs from the pouch of lactating and non-lactating devils to detect changes in microbe populations. Pouch swab collection was carried out in accordance with the Save the Tasmanian Devil Program and was approved by the Animal Ethics Committee of the University of Sydney (permit number 681).”
as §15, §6, §7

C. gattii = format: cell-based, Cryptococcus gattii; conditions: broth microdilution (CLSI), YNB, 64 to 0.125 μg/mL, 72 hours at 35 °C; human clinical isolate
Procedure: as §1, with “t-test.” for “t-test. Pouch microbiome analysis was performed on swabs from the pouch of lactating and non-lactating devils to detect changes in microbe populations. Pouch swab collection was carried out in accordance with the Save the Tasmanian Devil Program and was approved by the Animal Ethics Committee of the University of Sydney (permit number 681).”
as §15, §6, §7

| Sequence | MIC (E. coli ATCC 25922) | MIC (S. aureus ATCC 29213) | MIC (S. aureus) | MIC (E. faecalis) | MIC [1] | MIC [2] | MIC (S. pneumoniae ATCC 49619) | MIC (K. pneumoniae*) | MIC (C. krusei ATCC 6258) | MIC (C. neoformans) | MIC (C. gattii) |
| --- | --- | --- | --- | --- | --- | --- | --- | --- | --- | --- | --- |
| KRMGIFHLFWAGLRKLGNLIKNKIQQGIENFLG [Saha-CATH3] | >64 µg/mL | >64 µg/mL | >64 µg/mL | >64 µg/mL | >64 µg/mL | >64 µg/mL | >64 µg/mL | >64 µg/mL | >64 µg/mL | 16 µg/mL | >64 µg/mL |
| KRIRFFERIRDRLRDLGNRIKNRIRDFFS [Saha-CATH6] | >64 µg/mL | >64 µg/mL | >64 µg/mL | >64 µg/mL | 64 µg/mL | >64 µg/mL | 64 µg/mL | >64 µg/mL | 64 µg/mL | 64 µg/mL | 64 µg/mL |
| KRIGLIRLIGKILRGLRRLG [Saha-CATH5] | 32 µg/mL | 64 µg/mL | 64 µg/mL | >64 µg/mL | 32 µg/mL | >64 µg/mL | 64 µg/mL | >64 µg/mL | 64 µg/mL | 32 µg/mL | 64 µg/mL |
